Assay results: ChEMBL document CHEMBL5236616, “Chlorinated Naringenin Analogues as Potential Inhibitors of Transthyretin Amyloidogenesis” (J Med Chem, 2022)
Converted amounts (≈) assume the structure as drawn. The source made the active and inactive calls. The rule behind the calls is not given here.

Tests used:
[1] = test system: Transthyretin (Homo sapiens), P02766 [V50M]; test: Inhibition of acid mediated TTR V30M mutant aggregation (unknown origin) expressed in Escherichia coli preincubated for 30 mins followed by acid stimulation and measured after 96 hrs by fluorescence spectrophotometer analysis; conditions: time 96.5 hrs
[2] = Permeability of compound at 10 uM after 4 hrs by LC-MS/MS based PAMPA; format: ADME; conditions: read-out: permeability
[3] = Drug concentration in Sprague-Dawley rat eye ball at 1 mg/kg, po after 8 hrs by LC-MS/MS anlaysis; format: ADME, organism-based, Eyeball of camera-type eye; conditions: read-out: Ct
[4] = Ratio of drug concentration in Sprague-Dawley rat brain to plasma at 1 mg/kg, iv after 8 hrs by LC-MS/MS analysis; format: ADME, organism-based
[5] = Ratio of drug concentration in Sprague-Dawley rat eye ball to plasma at 1 mg/kg, iv after 8 hrs by LC-MS/MS analysis; format: ADME, organism-based
[6] = molecular target: Transthyretin (Homo sapiens) (UniProt P02766); test: Displacement of (E)-S-phenyl 3(4-hydroxy-3,5-dimethylstyryl)benzothioate from human plasma TTR at 20 uM incubated for 6 hrs by fluorescence based assay; format: cell-free
[7] = Drug concentration in Sprague-Dawley rat brain at 1 mg/kg, iv after 8 hrs by LC-MS/MS anlaysis; format: ADME, organism-based; conditions: read-out: Ct
[8] = Drug concentration in Sprague-Dawley rat plasma at 1 mg/kg, iv after 8 hrs by LC-MS/MS anlaysis; format: ADME, organism-based
[9] = test system: Transthyretin (Homo sapiens), P02766 [V50M]; test: Binding affinity to TTR V30M mutant (unknown origin) expressed in Escherichia coli assessed as change in enthalpy by ITC assay
Transthyretin = Transthyretin (Homo sapiens, UniProt P02766, V50M); test: Binding affinity to TTR V30M mutant (unknown origin) expressed in Escherichia coli by ITC assay
[10] = Ratio of drug concentration in Sprague-Dawley rat brain to plasma at 1 mg/kg, po after 8 hrs by LC-MS/MS analysis; format: ADME, organism-based
[11] = Drug concentration in Sprague-Dawley rat plasma at 1 mg/kg, po after 8 hrs by LC-MS/MS anlaysis; format: ADME, organism-based
[12] = test system: Transthyretin (Homo sapiens), P02766 [V50M]; test: Binding affinity to TTR V30M mutant (unknown origin) expressed in Escherichia coli assessed as gibbs free energy change by ITC assay
[13] = Plasma protein binding in rat assessed as unbound fraction at 1 uM incubated for 4 hrs by rapid equilibrium dialysis method; format: ADME, cell-free
[14] = Aqueous solubility of compound at pH 1.2 incubated for 4 hrs; format: physicochemical; conditions: aqueous medium
[15] = Drug concentration in Sprague-Dawley rat eye ball at 1 mg/kg, iv after 8 hrs by LC-MS/MS anlaysis; format: ADME, organism-based, Eyeball of camera-type eye; conditions: read-out: Ct
[16] = test system: Transthyretin (Homo sapiens), P02766 [V50M]; test: Binding affinity to TTR V30M mutant (unknown origin) expressed in Escherichia coli assessed as change in entropy by ITC assay
[17] = Aqueous solubility of compound at pH 6.8 incubated for 4 hrs; format: physicochemical; conditions: aqueous medium
[18] = Ratio of drug concentration in Sprague-Dawley rat eye ball to plasma at 1 mg/kg, po after 8 hrs by LC-MS/MS analysis; format: ADME, organism-based
[19] = Drug concentration in Sprague-Dawley rat brain at 1 mg/kg, po after 8 hrs by LC-MS/MS anlaysis; format: ADME, organism-based; conditions: read-out: Ct
[20] = Drug concentration in rat plasma at 1.82 mg/kg, po; format: ADME, organism-based; conditions: in vivo

## O=C1CC(c2cc(Cl)c(O)c(Cl)c2)Oc2ccc(O)cc21 (stereo not given)
[1]
  IC50: 4.3 µM

## O=C1CC(c2cc(Cl)c(O)c(Cl)c2)Oc2cc(O)cc(O)c21 (stereo not given)
[2]
  Papp at 4 h, 10 µM: > 50 ×10⁻⁶ cm/s
[1]
  IC50: 3.7 µM
[3]
  concentration at 8 h: 37.1 nM
[4]
  Kp at 8 h: 0.074
[5]
  Kp at 8 h: 0.209
[6]
  Activity: Active
[7]
  concentration at 8 h: 53.1 nM
[8]
  concentration at 8 h: 717 nM
[9]
  deltaH: -16.7 kcal/mol
Transthyretin
  Kd: 0.016 µM
[10]
  Kp at 8 h: 0.058
[11]
  concentration at 8 h: 267 nM
[12]
  deltaG: -10.7 kcal/mol
[13]
  Fu: 0.081%
[14]
  solubility at 4 h: 0.66 µM (≈ 0.225 µg/mL)
[15]
  concentration at 8 h: 150 nM
[16]
  TdeltaS: 6 kcal/mol
[17]
  solubility at 4 h: 28.3 µM (≈ 9.65 µg/mL)
[18]
  Kp at 8 h: 0.139
[19]
  concentration at 8 h: 15.6 nM

## O=C1CC(c2cc(Cl)c(O)c(Cl)c2)Oc2cccc(O)c21 (stereo not given)
[1]
  IC50: 3.6 µM
[6]
  Activity: Active
[9]
  deltaH: -8.61 kcal/mol
Transthyretin
  Kd: 0.013 µM
[12]
  deltaG: -10.9 kcal/mol
[16]
  TdeltaS: -2.28 kcal/mol

## O=C1CC(c2ccc(Cl)cc2)Oc2cc(O)cc(O)c21 (stereo not given)
[1]
  IC50: 15 µM

## O=C1CC(c2ccc(O)c(Cl)c2)Oc2ccc(O)cc21 (stereo not given)
[1]
  IC50: 5.9 µM

## O=C1CC(c2ccc(O)c(Cl)c2)Oc2cc(O)cc(O)c21 (stereo not given)
[1]
  IC50: 5.3 µM
[6]
  Activity: Active
[9]
  deltaH: -13.2 kcal/mol
Transthyretin
  Kd: 0.403 µM
[12]
  deltaG: -8.73 kcal/mol
[16]
  TdeltaS: 4.47 kcal/mol

## O=C1CC(c2ccc(O)c(Cl)c2)Oc2cc(O)ccc21 (stereo not given)
[1]
  IC50: 6 µM

## O=C1CC(c2cc(Cl)cc(Cl)c2)Oc2cc(O)cc(O)c21 (stereo not given)
[1]
  IC50: 3.8 µM
[6]
  Activity: Active
[9]
  deltaH: -7.42 kcal/mol
Transthyretin
  Kd: 0.006 µM
[12]
  deltaG: -13.6 kcal/mol
[16]
  TdeltaS: -6.17 kcal/mol

## O=C1C[C@@H](c2ccc(O)cc2)Oc2cc(O)cc(O)c21 [NARINGENIN]
[1]
  IC50: 12 µM
[9]
  deltaH: -10.9 kcal/mol
Transthyretin
  Kd: 1.63 µM
[12]
  deltaG: -7.9 kcal/mol
[16]
  TdeltaS: 1.32 kcal/mol
[20]
  concentration: 1500 nM

## O=C1CC(c2ccc(O)c(Cl)c2)Oc2cccc(O)c21 (stereo not given)
[1]
  IC50: 7.2 µM

## O=C1CC(c2cc(Cl)c(O)c(Cl)c2)Oc2cc(O)ccc21 (stereo not given)
[1]
  IC50: 4.6 µM
[6]
  Activity: Active
[9]
  deltaH: -13.2 kcal/mol
Transthyretin
  Kd: 0.026 µM
[12]
  deltaG: -10.4 kcal/mol
[16]
  TdeltaS: 2.78 kcal/mol
